In BindingDB's records for doi:10.1021/jm200999f (Corning, 2011):

Target: G-protein coupled receptor 35 (Homo sapiens, UniProt Q9HC97)
Test: Antagonist activity at GPR35 in human HT-29 cells assessed as inhibition of zaprinast-induced DMR by dynamic mass redistribution assay

Chain of G-protein coupled receptor 35 (Q9HC97 whole entry): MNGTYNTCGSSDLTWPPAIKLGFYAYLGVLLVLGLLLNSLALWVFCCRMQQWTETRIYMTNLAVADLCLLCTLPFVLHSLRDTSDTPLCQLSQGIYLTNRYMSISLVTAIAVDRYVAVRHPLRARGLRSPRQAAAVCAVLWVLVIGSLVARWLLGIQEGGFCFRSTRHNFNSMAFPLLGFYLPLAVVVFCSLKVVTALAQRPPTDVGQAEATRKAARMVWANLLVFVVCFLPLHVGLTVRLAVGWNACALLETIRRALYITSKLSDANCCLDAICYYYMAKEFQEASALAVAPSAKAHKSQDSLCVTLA

CCCOc1ccccc1-c1nc2nn[nH]c2c(=O)[nH]1 [5-(2-propoxyphenyl)-2H,3H,7H-[1,2,3]triazolo[4,5-d]pyrimidin-7-one] was tested. Which “IC50” value did it give?
Its value is 10.5 µM.
